From ChEMBL document CHEMBL1130839, “Synthesis and pharmacological activities of 13-dehydro derivatives of primary prostaglandins” (Bioorg Med Chem Lett, 1998)

Key:
Format in all cases: functional
Homo sapiens = species: Homo sapiens; assay: Compound was tested for inhibition of ADP-induced human platelet aggregation
Cavia porcellus [1] = species: Cavia porcellus; assay: Compound was tested for relaxation of guinea-pig trachea precontracted in histamine
Cavia porcellus [2] = species: Cavia porcellus; assay: Compound was tested for contraction of guinea-pig ileum; conditions: read-out: ED50 (the source's name)
Cavia porcellus [3] = species: Cavia porcellus; assay: Compound was tested for relaxation of guinea-pig trachea precontracted with histamine
Cavia porcellus [4] = species: Cavia porcellus; assay: Compound was tested for […] PGE2-induced relaxation of guinea-pig trachea precontracted with carbachol
Rattus norvegicus = species: Rattus norvegicus; assay: Compound was tested for contraction of rat isolated uterine; conditions: read-out: ED50 (the source's name)

SMILES	IC50 (Homo sapiens)	IC50 (Cavia porcellus [1])	EC50 (Cavia porcellus [2])	IC50 (Cavia porcellus [3])	IC50 (Cavia porcellus [4])	EC50 (Rattus norvegicus)
CC/C=C\C[C@H](O)C#C[C@H]1[C@H](O)CC(=O)[C@@H]1C/C=C\CCCC(=O)O	2600 nM	5400 nM	260 nM			
CCCCC[C@H](O)C#C[C@H]1[C@H](O)CC(=O)[C@@H]1CCCCCCC(=O)O	3000 nM		0.23 nM	8900 nM		
CCCCC[C@H](O)C#C[C@H]1[C@H](O)CC(=O)[C@@H]1C/C=C\CCCC(=O)O	3.4 nM		0.18 nM		2.6 nM	
CCCCC[C@H](O)C#C[C@@H]1[C@@H](CCCCCCC(=O)O)[C@@H](O)C[C@H]1O			20 nM			1000 nM
